Values of other authors, collected in patent US4610817A, “N-acyl derivatives of peptides, their preparation and their use in the treatment of disorders, and agents for this purpose” (BASF Aktiengesellschaft, priority 1983, dated 1986).
Where a SMILES comes first, the peptide text is derived from it.

Tested on: tremor, rigor and akinesia in Parkinson patients
Conditions: alone or in combination with L-dopa

CC(C)C[C@H](NC(=O)[C@@H]1CCCN1)C(=O)NCC(N)=O [MIF, L-Pro-L-Leu-Gly-NH2] (H-Pro-Leu-Gly-NH2)
clinical effect on Parkinson symptoms: advantageous effect on tremor, rigor and akinesia
